The text below walks through data of paper doi:10.1101/819920v2 (biorxiv, 2020).

The assay concerns the target YegI (Escherichia coli, UniProt Q8X7J8). The experiment in a line: biochemical.

Molecules are shown by their SMILES.

Sequence of YegI (Q8X7J8 whole entry): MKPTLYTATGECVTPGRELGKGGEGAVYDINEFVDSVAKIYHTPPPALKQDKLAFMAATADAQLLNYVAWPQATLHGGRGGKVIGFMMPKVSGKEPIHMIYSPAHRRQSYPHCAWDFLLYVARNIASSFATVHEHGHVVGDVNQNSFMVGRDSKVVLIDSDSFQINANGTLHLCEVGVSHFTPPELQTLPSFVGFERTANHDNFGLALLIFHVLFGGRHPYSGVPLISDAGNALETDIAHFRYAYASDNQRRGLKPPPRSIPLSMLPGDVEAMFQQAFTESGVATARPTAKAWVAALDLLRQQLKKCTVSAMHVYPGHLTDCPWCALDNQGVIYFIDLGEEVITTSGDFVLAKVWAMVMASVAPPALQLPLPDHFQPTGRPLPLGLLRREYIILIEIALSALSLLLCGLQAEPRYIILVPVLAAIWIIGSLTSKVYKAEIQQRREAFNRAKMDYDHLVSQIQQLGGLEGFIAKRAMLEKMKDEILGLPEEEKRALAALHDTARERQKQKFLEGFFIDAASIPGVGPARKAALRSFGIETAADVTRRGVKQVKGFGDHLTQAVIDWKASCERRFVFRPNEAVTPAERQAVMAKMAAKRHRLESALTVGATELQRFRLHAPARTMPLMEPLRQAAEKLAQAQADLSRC

A word on the IC50: it is the point on the concentration scale where inhibition reaches its midpoint. Compound `CN[C@@H]1C[C@H]2O[C@@](C)([C@@H]1OC)n1c3ccccc3c3c4c(c5c6ccccc6n2c5c31)C(=O)NC4` [staurosporine] showed a 50% inhibitory concentration (IC50) of roughly 50 µM.
